The values below come from patent US10190093B2, “Artificial oocyte activation” (The Curators of the University of Missouri, priority 2013, dated 2019).

In one assay the test system is SCNT embryos. Nature of the assay: In vitro development of SCNT embryos treated with Scriptaid or TPEN. Format: cell-based, pig. The conditions noted are these: SCNT + Scriptaid. The protocol: Activated oocytes were washed three times in PZM3 then incubated at 38.5° C., 5% CO2 until the embryos were examined on either day 2, 6 or 7. At the end of the culture, where applicable, the frequency of cleaved embryos and blastocysts, and total cell number in the blastocysts were recorded. Hoechst 33342 (1.2 mg/mL) was used to stain nuclei and the embryos were then evaluated by epi-fluorescence microscopy.
Next, the optimal concentration and duration of TPEN ([…], 30 min) was used to artificially activate reconstructed SCNT embryos. […] Thus lower concentrations of TPEN (5-10 μM) can enhance embryo development when introduced after conventional oocyte activation.

Another assay concerns MII oocytes. Description: Intracellular calcium measurement (fura-2). The following applies: oocytes incubated with thimerosal, positive control. The class given is cell-based, pig. The protocol: The zonae pellucidae were removed after maturation and zona-free oocytes were loaded with the Ca^2+ indicator dye, fura-2. For this purpose, they were incubated in the presence of […] of the acetoxymethyl ester form of the dye and 0.02% pluronic F-127 for 40-50 min (both from Invitrogen). The dye loaded oocytes were transferred into a chamber with a cover-glass bottom and the chamber was then placed on the heated stage of an inverted microscope. Changes in the intracellular free Ca^2+ concentration were recorded using InCytIm2, a dual-wavelength fluorescence imaging system (Intracellular Imaging, Inc.; Cincinnati, Ohio). During measurements the emitted fluorescence was detected at 510 nm after exciting the dye alternately at 340 and 380 nm. The ratio of the two emitted fluorescence intensities was calculated and the data are presented as fluorescence ratio values. Ratios of 1.0 and 5.0 correspond to about 100 and 1,200 nM Ca^2+, respectively. In each treatment group the measurements were repeated at least 5 times using different oocytes.
In general terms: Calcium assays in cells follow changes in intracellular calcium, usually with a dye or a luminescent sensor.

Marks after values point to notes of the source that are not given here.

Take `O=C(CCCCCN1C(=O)c2cccc3cccc(c23)C1=O)NO` [Scriptaid]: the “% blastocysts” value with SCNT embryos is 22.7%^b. Consider `C[CH2][Hg][S]c1ccccc1C(=O)[O-].[Na+]` [thimerosal], for which, in the assay on MII oocytes, the “intracellular Ca2+ increase” value is reported as “could induce Ca^2+ increase”.
